Biological target: T1, human TLR8 (Homo sapiens, UniProt Q9NR97)
T1 construct: host or cells: HEK-Blue cells
T1 sequence (Q9NR97 27-1041): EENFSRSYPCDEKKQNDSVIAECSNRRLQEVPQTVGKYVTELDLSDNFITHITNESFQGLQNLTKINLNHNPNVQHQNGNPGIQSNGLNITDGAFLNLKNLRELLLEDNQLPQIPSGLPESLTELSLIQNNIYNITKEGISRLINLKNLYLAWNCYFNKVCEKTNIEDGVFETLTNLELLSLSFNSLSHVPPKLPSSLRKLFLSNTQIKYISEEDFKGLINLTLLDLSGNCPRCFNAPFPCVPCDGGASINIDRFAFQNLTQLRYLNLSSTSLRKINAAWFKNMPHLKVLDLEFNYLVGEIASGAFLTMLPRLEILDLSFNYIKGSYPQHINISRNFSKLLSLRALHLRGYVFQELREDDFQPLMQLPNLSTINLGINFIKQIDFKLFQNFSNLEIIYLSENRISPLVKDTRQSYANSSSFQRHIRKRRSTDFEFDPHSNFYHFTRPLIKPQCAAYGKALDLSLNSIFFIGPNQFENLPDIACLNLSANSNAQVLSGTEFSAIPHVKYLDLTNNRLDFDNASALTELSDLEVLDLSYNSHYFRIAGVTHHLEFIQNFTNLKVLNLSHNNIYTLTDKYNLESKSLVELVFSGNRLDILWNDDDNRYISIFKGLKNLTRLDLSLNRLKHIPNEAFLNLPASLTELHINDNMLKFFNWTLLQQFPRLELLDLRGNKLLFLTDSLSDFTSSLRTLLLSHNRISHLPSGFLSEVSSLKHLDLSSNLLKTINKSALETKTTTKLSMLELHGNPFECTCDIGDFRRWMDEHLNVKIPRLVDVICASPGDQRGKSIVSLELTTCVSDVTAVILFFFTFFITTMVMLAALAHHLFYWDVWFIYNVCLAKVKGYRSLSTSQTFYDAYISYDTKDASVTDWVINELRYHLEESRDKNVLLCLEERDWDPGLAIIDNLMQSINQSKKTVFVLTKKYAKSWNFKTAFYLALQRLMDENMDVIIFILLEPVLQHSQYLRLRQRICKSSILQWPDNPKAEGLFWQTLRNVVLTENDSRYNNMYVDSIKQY
Experiment: TLR8 inhibition reporter assay (HEK-Blue SEAP)
Format: cell-based
Settings: HEK-Blue cells overexpressing human TLR8, R848 15.9 μM, 22 hour incubation
How it was run: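 Screening used HEK-Blue cells overexpressing one human TLR (7, 8 or 9) and an IFN-β minimal promoter–NF-κB/AP-1 SEAP construct. Stimulation lasted 22 h at 37 °C with receptor-specific agonist: gardiquimod, R848 or ODN2006 at 7.5 μM, 15.9 μM and 5 nM.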

Row | IC50 | SMILES
1 | 54.1 nM | COc1cc(-c2cc3[nH]c(=O)n(C4CCN(C)CC4)c3cc2C)cn2ncnc12 [Example 1, 5-(8-methoxy-[1,2,4]triazolo[1,5-a]pyridin-6-yl)-6-methyl-1-(1-methylpiperidin-4-yl)-1,3-dihydro-2H-benzo[d]imidazol-2-one]
2 | 107 nM | Cc1cc2c(cc1-c1cc(C)c3ncnn3c1)[nH]c(=O)n2C1CCN(C(C)C)CC1 [Example 2, 1-(1-isopropylpiperidin-4-yl)-6-methyl-5-(8-methyl-[1,2,4]triazolo[1,5-a]pyridin-6-yl)-1,3-dihydro-2H-benzo[d]imidazol-2-one]
3 | 0.61 nM | Cc1cc2c(cc1-c1cc(C)c3ncnn3c1)[nH]c(=O)n2[C@H]1CC[C@@H](NCC(C)(C)C)CC1 [Example 32, 6-methyl-5-(8-methyl-[1,2,4]triazolo[1,5-a]pyridin-6-yl)-1-((1s,4s)-4-(neopentylamino)cyclohexyl)-1,3-dihydro-2H-benzo[d]imidazol-2-one]
4 | 10.9 nM | Cc1cc2c(cc1-c1cc(C)c3ncnn3c1)[nH]c(=O)n2[C@H]1CC[C@@H](NCc2ncn(C)n2)CC1 [Example 33, 6-methyl-1-((1s,4s)-4-(((1-methyl-1H-1,2,4-triazol-3-yl)methyl)amino)cyclohexyl)-5-(8-methyl-[1,2,4]triazolo[1,5-a]pyridin-6-yl)-1,3-dihydro-2H-benzo[d]imidazol-2-one]
5 | 4.65 nM | CCC(C)N[C@H]1CC[C@@H](n2c(=O)[nH]c3cc(-c4cc(C)c5ncnn5c4)c(C)cc32)CC1 (stereo partly drawn) [Example 34, 1-((1s,4s)-4-(sec-butylamino)cyclohexyl)-6-methyl-5-(8-methyl-[1,2,4]triazolo[1,5-a]pyridin-6-yl)-1,3-dihydro-2H-benzo[d]imidazol-2-one]
6 | 220 nM | Cc1cc2c(cc1-c1cc(C)c3ncnn3c1)[nH]c(=O)n2[C@@H]1CCCN(Cc2ncn(C)n2)C1 [Example 35, (R)-6-methyl-1-(1-((1-methyl-1H-1,2,4-triazol-3-yl)methyl)piperidin-3-yl)-5-(8-methyl-[1,2,4]triazolo[1,5-a]pyridin-6-yl)-1,3-dihydro-2H-benzo[d]imidazol-2-one]
7 | 37.5 nM | COc1ncc(CN2CCC[C@H](n3c(=O)[nH]c4cc(-c5cc(C)c6ncnn6c5)c(C)cc43)C2)cn1 [Example 36, (S)-1-(1-((2-methoxypyrimidin-5-yl)methyl)piperidin-3-yl)-6-methyl-5-(8-methyl-[1,2,4]triazolo[1,5-a]pyridin-6-yl)-1,3-dihydro-2H-benzo[d]imidazol-2-one]
8 | 28.7 nM | Cc1cc2c(cc1-c1cc(C)c3ncnn3c1)[nH]c(=O)n2[C@@H]1CCCN(CC2CC2)C1 [Example 37, (R)-1-(1-(cyclopropylmethyl)piperidin-3-yl)-6-methyl-5-(8-methyl-[1,2,4]triazolo[1,5-a]pyridin-6-yl)-1,3-dihydro-2H-benzo[d]imidazol-2-one]
9 | 49.3 nM | Cc1cc2c(cc1-c1cc(C)c3ncnn3c1)[nH]c(=O)n2[C@@H]1CCCN(CCCC(F)(F)F)C1 [Example 39, (R)-6-methyl-5-(8-methyl-[1,2,4]triazolo[1,5-a]pyridin-6-yl)-1-(1-(4,4,4-trifluorobutyl)piperidin-3-yl)-1,3-dihydro-2H-benzo[d]imidazol-2-one]
10 | 19.6 nM | Cc1cc2c(cc1-c1cc(C)c3ncnn3c1)[nH]c(=O)n2[C@@H]1CCCN(CC(C)C)C1 [Example 40, (R)-1-(1-isobutylpiperidin-3-yl)-6-methyl-5-(8-methyl-[1,2,4]triazolo[1,5-a]pyridin-6-yl)-1,3-dihydro-2H-benzo[d]imidazol-2-one]
11 | 27.1 nM | Cc1cc2c(cc1-c1cc(C)c3ncnn3c1)[nH]c(=O)n2[C@@H]1CCCN(CC2CCOCC2)C1 [Example 41, (R)-6-methyl-5-(8-methyl-[1,2,4]triazolo[1,5-a]pyridin-6-yl)-1-(1-((tetrahydro-2H-pyran-4-yl)methyl)piperidin-3-yl)-1,3-dihydro-2H-benzo[d]imidazol-2-one]
12 | 29.5 nM | CCCN1CCC[C@@H](n2c(=O)[nH]c3cc(-c4cc(C)c5ncnn5c4)c(C)cc32)C1 [Example 42, (R)-6-methyl-5-(8-methyl-[1,2,4]triazolo[1,5-a]pyridin-6-yl)-1-(1-propylpiperidin-3-yl)-1,3-dihydro-2H-benzo[d]imidazol-2-one]
13 | 57.7 nM | Cc1cc2c(cc1-c1cc(C)c3ncnn3c1)[nH]c(=O)n2[C@@H]1CCCN(CC2CCOC2)C1 (stereo partly drawn) [Example 43, 6-methyl-5-(8-methyl-[1,2,4]triazolo[1,5-a]pyridin-6-yl)-1-((3R)-1-((tetrahydrofuran-3-yl)methyl)piperidin-3-yl)-1,3-dihydro-2H-benzo[d]imidazol-2-one]
14 | 49 nM | Cc1cc2c(cc1-c1cc(C)c3ncnn3c1)[nH]c(=O)n2[C@@H]1CCCN(CCC(C)(C)C)C1 [Example 44, (R)-1-(1-(3,3-dimethylbutyl)piperidin-3-yl)-6-methyl-5-(8-methyl-[1,2,4]triazolo[1,5-a]pyridin-6-yl)-1,3-dihydro-2H-benzo[d]imidazol-2-one]
15 | 48.1 nM | CCC(CC)CN1CCC[C@@H](n2c(=O)[nH]c3cc(-c4cc(C)c5ncnn5c4)c(C)cc32)C1 [Example 45, (R)-1-(1-(2-ethylbutyl)piperidin-3-yl)-6-methyl-5-(8-methyl-[1,2,4]triazolo[1,5-a]pyridin-6-yl)-1,3-dihydro-2H-benzo[d]imidazol-2-one]
16 | 42.4 nM | Cc1cc2c(cc1-c1cc(C)c3ncnn3c1)[nH]c(=O)n2[C@@H]1CCCN(Cc2cccnc2)C1 [Example 46, (R)-6-methyl-5-(8-methyl-[1,2,4]triazolo[1,5-a]pyridin-6-yl)-1-(1-(pyridin-3-ylmethyl)piperidin-3-yl)-1,3-dihydro-2H-benzo[d]imidazol-2-one]
17 | 32.8 nM | Cc1cc2c(cc1-c1cc(C)c3ncnn3c1)[nH]c(=O)n2[C@@H]1CCCN(CC2CCCC2)C1 [Example 47, (R)-1-(1-(cyclopentylmethyl)piperidin-3-yl)-6-methyl-5-(8-methyl-[1,2,4]triazolo[1,5-a]pyridin-6-yl)-1,3-dihydro-2H-benzo[d]imidazol-2-one]
18 | 5.33 nM | COc1cc(-c2cc3[nH]c(=O)n([C@H]4CC[C@@H](N(C)C)CC4)c3cc2C)cn2ncnc12 [Example 48, 1-((1s,4s)-4-(dimethylamino)cyclohexyl)-5-(8-methoxy-[1,2,4]triazolo[1,5-a]pyridin-6-yl)-6-methyl-1,3-dihydro-2H-benzo[d]imidazol-2-one]
19 | 3.26 nM | COc1cc(-c2cc3[nH]c(=O)n([C@H]4CC[C@@H](NC5CCOCC5)CC4)c3cc2C)cn2ncnc12 [Example 49, 5-(8-methoxy-[1,2,4]triazolo[1,5-a]pyridin-6-yl)-6-methyl-1-((1s,4s)-4-((tetrahydro-2H-pyran-4-yl)amino)cyclohexyl)-1,3-dihydro-2H-benzo[d]imidazol-2-one]
20 | 4.86 nM | COc1cc(-c2cc3[nH]c(=O)n([C@H]4CC[C@@H](NC(C)C)CC4)c3cc2C)cn2ncnc12 [Example 50, 1-((1s,4s)-4-(isopropylamino)cyclohexyl)-5-(8-methoxy-[1,2,4]triazolo[1,5-a]pyridin-6-yl)-6-methyl-1,3-dihydro-2H-benzo[d]imidazol-2-one]
21 | 21 nM | COc1cc(-c2cc3[nH]c(=O)n([C@@H]4CCCN(C)C4)c3cc2C)cn2ncnc12 [Example 51, (R)-5-(8-methoxy-[1,2,4]triazolo[1,5-a]pyridin-6-yl)-6-methyl-1-(1-methylpiperidin-3-yl)-1,3-dihydro-2H-benzo[d]imidazol-2-one]
22 | 25.7 nM | CCN1CCC[C@@H](n2c(=O)[nH]c3cc(-c4cc(OC)c5ncnn5c4)c(C)cc32)C1 [Example 52, (R)-1-(1-ethylpiperidin-3-yl)-5-(8-methoxy-[1,2,4]triazolo[1,5-a]pyridin-6-yl)-6-methyl-1,3-dihydro-2H-benzo[d]imidazol-2-one]
23 | 35.9 nM | COc1cc(-c2cc3[nH]c(=O)n([C@@H]4CCCN(C(C)C)C4)c3cc2C)cn2ncnc12 [Example 53, (R)-1-(1-isopropylpiperidin-3-yl)-5-(8-methoxy-[1,2,4]triazolo[1,5-a]pyridin-6-yl)-6-methyl-1,3-dihydro-2H-benzo[d]imidazol-2-one]
24 | 24 nM | CCCN1CCC[C@@H](n2c(=O)[nH]c3cc(-c4cc(OC)c5ncnn5c4)c(C)cc32)C1 [Example 54, (R)-5-(8-methoxy-[1,2,4]triazolo[1,5-a]pyridin-6-yl)-6-methyl-1-(1-propylpiperidin-3-yl)-1,3-dihydro-2H-benzo[d]imidazol-2-one]

Reference: patent US12187723B2 (BRISTOL-MYERS SQUIBB COMPANY, priority 2019, dated 2025)
